69 compounds from patent US9802899B2, “Heterocyclic compounds as pesticides” (BAYER CROPSCIENCE AG, priority 2012, dated 2017) can be followed below.

One series in a line: Determination of the log P values by HPLC (formic acid method). Format: physicochemical. To be noted: reversed-phase HPLC column (C 18), reversed-phase column (C 18), acidic range (pH 3.4), 55° C. Here is the method:
1) Description of Method for Determination of the Log P Values (Formic Acid Method)
Eluents for determination in the acidic range (pH 3.4):
Eluent A: acetonitrile+1 ml of formic acid/liter. Eluent B: water+0.9 ml of formic acid/liter.
The lambda max values were determined in the maxima of the chromatographic signals using the UV spectra from 200 nm to 400 nm.
`Nc1nn(-c2ccccc2Cl)cc1I` [4-Iodo-1-(2-chlorophenyl)-1H-pyrazole-3-amine] registered a chromatographic logP of 2.36.
`CCOc1c(F)cccc1-n1ccc(N)n1` [1-(2-ethoxy-3-fluorophenyl)-1H-pyrazole-3-amine] displayed a chromatographic logP of 2.04.
With `N#Cc1cc(F)cc(F)c1-n1ccc(NC(=O)c2ccccc2C(F)(F)F)n1` [Compound I-1-393, N-[1-(2-Cyano-4,6-difluorophenyl)-1H-pyrazol-3-yl]-2-(trifluoromethyl)benzamide], the chromatographic logP turned out to be 2.65.
On to `O=C(O)c1ccccc1C(=O)Nc1ccn(-c2c(F)cc([N+](=O)[O-])cc2F)n1` [2-{[1-(2,6-Difluoro-4-nitrophenyl)-1H-pyrazol-3-yl]carbamoyl}benzoic acid], for which the chromatographic logP came out at 1.85.
Still for that read-out and setting: the value for `N#Cc1cc(F)c(-n2ccc(NC(=O)c3ccccc3C(F)(F)F)n2)nc1Cl` [Compound I-1-606, N-[1-(6-Chloro-5-cyano-3-fluoropyridin-2-yl)-1H-pyrazol-3-yl]-2-(trifluoromethyl)benzamide] was 2.94; that for `CC(=O)c1cc(F)c(-n2ccc(NC(=O)c3ccccc3C(F)(F)F)n2)c(F)c1` [Compound I-1-584, N-[1-(4-Acetyl-2,6-difluorophenyl)-1H-pyrazol-3-yl]-2-(trifluoromethyl)benzamide] was 2.7; that for `Nc1ccn(-c2nc(F)c(F)cc2F)n1` [1-(3,5,6-Trifluoropyridin-2-yl)-1H-pyrazole-3-amine] was 1.15.
`N#Cc1ccc(C(F)(F)F)nc1-n1ccc(NC(=O)c2ccccc2C(F)(F)F)n1` [Compound I-1-569, N-{1-[3-Cyano-6-(trifluoromethyl)pyridin-2-yl]-1H-pyrazol-3-yl}-2-(trifluoromethyl)benzamide]: the chromatographic logP came to 3.41.
On the same count and under the same terms, as for `Nc1cnn(-c2ccc(C(F)(F)F)cn2)n1` [2-[5-(Trifluoromethyl)pyridin-2-yl]-2H-1,2,3-triazole-4-amine], the figure is 1.53; as for `Nc1cnn(-c2ncccc2F)n1` [2-(3-Fluoropyridin-2-yl)-2H-1,2,3-triazole-4-amine], 0.4.

The series is the same for the next values; noted with them: reversed-phase column (C 18), acidic range (pH 3.4), 55° C.
In the case of `O=C(Nc1ccn(-c2nccnc2F)n1)c1ccccc1I` [Compound I-1-176], the log partition coefficient (log P) stood at 2.18.
For `CCOc1c(F)cccc1-n1ccc(NC(=O)c2ccccc2Cl)n1` [Compound I-1-397], the log partition coefficient (log P) worked out at 2.74.
Regarding `O=C(Nc1ccn(-c2ncc(F)cc2F)n1)c1cscc1Br` [Compound I-1-524], the “log P” value was found to be 2.30.
Same read-out and setting: the value for `CCn1ncc(Br)c1C(=O)Nc1ccn(-c2c(F)cccc2F)n1` [Compound I-1-299] was 2.84; that for `O=C(Nc1ccn(-c2c(F)cccc2F)n1)c1cccnc1Cl` [Compound I-1-95] was 1.96.
On the same count and under the same terms, the value for `CCCc1nn(C)c(C(=O)Nc2ccn(-c3c(F)cccc3F)n2)c1Cl` [Compound I-1-313] was 3.68.
Take `O=C(Nc1ccn(-c2ncc(F)cc2F)n1)c1c(F)cccc1Cl` [Compound I-1-484]: the log partition coefficient (log P) was determined as 2.38.
`CC1=C(C(=O)Nc2ccn(-c3c(F)cccc3F)n2)OCCO1` [Compound I-1-615]: the “log P” value is listed as 2.42.
As for `Cc1nc(C(F)(F)F)c(C(=O)Nc2ccn(-c3ncc(F)cc3F)n2)s1` [Compound I-1-497], the “log P” value is 2.35.
As to `CCc1nccnc1C(=O)Nc1ccn(-c2ncc(F)cc2F)n1` [Compound I-1-489], the lipophilicity (log P) came out at 2.42.
On the same count and under the same terms, as for `O=C(Nc1ccn(-c2ccccc2Cl)n1)c1sccc1C(F)(F)F` [Compound I-1-375], the figure is 3.15.
Same read-out and setting: the value for `O=C(Nc1ccn(-c2c(F)cccc2F)n1)c1cccnc1OC(F)(F)F` [Compound I-1-250] was 2.77.
On to `O=C(Nc1ccn(-c2cc(F)c(F)cc2F)n1)c1ccccc1C(F)(F)F` [Compound I-1-191], for which the “log P” value was determined as 4.04.
Regarding `O=C(Nc1ccn(-c2cccnc2Cl)n1)c1ccccc1Cl` [Compound I-1-392], the “log P” value is 2.13.
On the same count and under the same terms, the value for `COc1ccccc1-n1ccc(NC(=O)c2cc(C)oc2C)n1` [Compound I-1-3] was 2.87; that for `O=C(Nc1ccn(-c2c(Cl)cccc2Cl)n1)c1ccccc1C(F)(F)F` [Compound I-1-120] was 3.05.
Still for that read-out and setting: the value for `O=C(Nc1ccn(-c2ccccc2Cl)n1)c1ncccc1Cl` [Compound I-1-40] was 2.79; that for `Cc1nn(C)c(C(=O)Nc2ccn(-c3ncc(F)cc3F)n2)c1C(F)F` [Compound I-1-514] was 2.13; that for `CS(=O)(=O)c1ccccc1C(=O)Nc1ccn(-c2ncc(F)cc2F)n1` [Compound I-1-462] was 1.69.
For the compound `Cc1cn(-c2ccccc2Cl)nc1NC(=O)c1cccnc1C(F)(F)F` [Compound I-1-348], the “log P” value is 2.53.
As to `O=C(Nc1ccn(-c2ncccc2F)n1)c1occc1I` [Compound I-1-582], the “log P” value is reported as 2.16.
`O=C(Nc1cnn(-c2ncc(F)cc2F)n1)c1ccccc1Br` [Compound I-2-68]: the log partition coefficient (log P) is 2.27.
Regarding `Cc1oncc1C(=O)Nc1ccn(-c2ncc(F)cc2F)n1` [Compound I-1-547], the “log P” value is recorded as 1.37.
For the compound `Cc1noc(C(F)(F)F)c1C(=O)Nc1ccn(-c2ncc(F)cc2F)n1` [Compound I-1-511], the “log P” value is on record as 2.61.
For the compound `CCOc1c(Cl)cccc1-n1ccc(NC(=O)c2cccnc2C(F)(F)F)n1` [Compound I-1-395], the log partition coefficient (log P) is reported as 3.21.
On the same count and under the same terms, the value for `O=C(Nc1ccn(-c2c(F)cccc2F)n1)c1ncccc1Cl` [Compound I-1-92] was 2.40; that for `O=C(Nc1ccn(-c2cnc(Cl)cn2)n1)c1ccccc1Cl` [Compound I-1-389] was 2.82; that for `O=C(Nc1ccn(-c2ncc(F)cc2F)n1)c1cccnc1CC(F)(F)F` [Compound I-1-457] was 2.13.
With `C=CCN(C(=O)c1ccccc1Cl)c1ccn(-c2ccccc2Cl)n1` [Compound I-1-26], the “log P” value stood at 3.56.
For `O=C(Nc1ccn(-c2ncc(F)cc2F)n1)c1ccccc1-n1cncn1` [Compound I-1-150], the “log P” value was 1.47.
The same measure, in the same setting: the value for `O=C(Nc1ccn(-c2ccccc2Cl)n1)c1cnccc1Cl` [Compound I-1-381] was 2.19; that for `O=C(Nc1ccn(-c2ccc(Cl)cc2Cl)n1)c1ccccc1C(F)(F)F` [Compound I-1-197] was 3.51; that for `Cc1nn(C(F)F)c(C(=O)Nc2ccn(-c3c(F)cccc3F)n2)c1F` [Compound I-1-231] was 2.89.
As for `O=C(Nc1ccn(-c2cncc(F)n2)n1)c1cccnc1Br` [Compound I-1-404], the “log P” value is 3.19.
Still for that read-out and setting: as for `N#Cc1ccccc1-n1ccc(NC(=O)c2ccccc2Cl)n1` [Compound I-1-8], the figure is 2.38; as for `O=C(Nc1ccn(-c2ncc(F)cc2Cl)n1)c1ccccc1C(F)(F)F` [Compound I-1-183], 2.64; as for `O=C(Nc1ccn(-c2ncnc(F)c2F)n1)c1c(F)cccc1F` [Compound I-1-171], 2.29.
As for `O=C(Nc1cnn(-c2ncccc2F)n1)c1ccccc1C(F)(F)F` [Compound I-2-44], the “log P” value is 2.18.
For `O=C(Nc1cnn(-c2ncccc2Cl)n1)c1c(F)cccc1F` [Compound I-2-15], the “log P” value is 2.09.
Take `O=C(Nc1cnn(-c2ncccc2F)n1)c1cccnc1C(F)(F)F` [Compound I-2-45]: the “log P” value was found to be 1.76.
For `O=C(Nc1ccn(-c2ncc(F)cc2F)n1)c1sccc1Cl` [Compound I-1-503], the “log P” value was found to be 2.61.
Same read-out and setting: as for `O=C(Nc1ccn(-c2ccc(Cl)cc2Cl)n1)c1ccccc1Cl` [Compound I-1-200], the figure is 3.40; as for `CCn1ncc(Cl)c1C(=O)Nc1ccn(-c2c(F)cccc2F)n1` [Compound I-1-308], 2.61.
Turning to `Cn1nc(C(F)(F)C(F)(F)F)c(C#N)c1C(=O)Nc1ccn(-c2c(F)cccc2F)n1` [Compound I-1-317], the “log P” value is recorded as 3.37.
Take `O=C(Nc1cnn(-c2ccccc2Br)n1)c1ccccc1I` [Compound I-2-33]: the “log P” value is recorded as 3.06.
On to `O=C(Nc1ccn(-c2nc(F)c(F)cc2F)n1)c1c(F)cccc1F` [Compound I-1-166], for which the “log P” value turned out to be 2.51.
As to `O=C(Nc1ccn(-c2c(F)cccc2F)c1)c1occc1I` [Compound I-3-6], the log partition coefficient (log P) is on record as 2.96.
In the case of `Cc1noc(C(F)(F)F)c1C(=O)Nc1ccn(-c2c(F)cccc2F)n1` [Compound I-1-291], the “log P” value came to 2.80.
With `Cc1onc(C(=O)Nc2ccn(-c3c(F)cccc3F)n2)c1C` [Compound I-1-297], the “log P” value is reported as 2.76.
Regarding `Cn1nc(C(F)(F)F)c(Br)c1C(=O)Nc1ccn(-c2c(F)cccc2F)n1` [Compound I-1-303], the “log P” value came to 3.37.
As to `O=C(Nc1ccn(-c2ccccc2Cl)n1)c1ccccc1C(F)F` [Compound I-1-13], the “log P” value is 3.03.
Take `CC(C)n1nc([N+](=O)[O-])c(Cl)c1C(=O)Nc1ccn(-c2c(F)cccc2F)n1` [Compound I-1-310]: the “log P” value is recorded as 3.28.
For `O=C(Nc1ccn(-c2c(F)cccc2F)n1)c1snc(Cl)c1Cl` [Compound I-1-115], the lipophilicity (log P) is reported as 3.33.
Regarding `Cn1cc(C(=O)Nc2ccn(-c3ncc(Cl)cc3Cl)n2)c(I)n1` [Compound I-1-435], the “log P” value came out at 1.83.
Take `CCc1ncccc1C(=O)Nc1ccn(-c2ncc(F)cc2F)n1` [Compound I-1-490]: the “log P” value was 1.29.
Still for that read-out and setting: as for `O=C(Nc1ccn(-c2cc(F)ccc2F)n1)c1cccnc1C(F)(F)F` [Compound I-1-70], the figure is 2.60; as for `N#Cc1cc(F)ccc1-n1ccc(NC(=O)c2ccccc2Br)n1` [Compound I-1-629], 2.55; as for `O=C(Nc1ccn(-c2c(F)cccc2F)n1)c1ccccc1F` [Compound I-1-278], 2.60.
Take `O=C(Nc1ccn(-c2ncc(F)cn2)n1)c1ccccc1I` [Compound I-1-605]: the “log P” value was found to be 2.05.
